Experimental findings from the NIST ThermoML archive (doi:10.1021/je501106d) are described below.

The conditions of this series: Liquid, Brillouin scattering.

Numbers after ± are expanded uncertainties.

`Cc1ccccc1` [toluene]: the speed of sound is, setting by setting: (323.15 K) 1200.8 ± 38 m/s; (423.15 K) 806 ± 26 m/s; (523.15 K) 425.5 ± 14 m/s.
